Reference: patent US6121252A, “Phosphinic acid derivatives” (priority 1998, dated 2000)

Key:
cortical cell cultures = test: In vitro ischemia assay (KCN/2-DG) in cortical cell cultures; format: cell-based, rat
sciatic nerve = test: Myelin formation following sciatic nerve cryolesion; format: in vivo, mouse
Procedure: Cryolesion of the mouse sciatic nerve was performed according to Koenig et al. , Science, Vol. 268, pp. 1500-1503 (June 1995). In brief, each mouse was anesthetized and its sciatic nerve was exposed in the upper thigh and cryolesioned using a copper cryode (diameter=0.5 mm) that was dipped in liquid nitrogen and repeatedly applied to the upper part of the nerve. The extent of the lesion was approximately 1 mm.
Both right and left sciatic nerves of each mouse were lesioned; right-side nerves were treated with silicone implant strips containing vehicle alone while left-side nerves were treated with silicone implants containing 2-(phosphonomethyl)pentanedioic acid. Fifteen days after surgery, the mice were sacrificed and their sciatic nerve segments were collected and processed for light microscopy and TEM analysis. Randomly chosen fields 2-3 mm distal to the lesion were qualitatively analyzed by light microscopy using 1-micrometer-thick toluidine blue stained cross sections and photographic images were captured.

Sprague-Dawley rats = test: Dynorphin-induced spinal cord injury; format: in vivo, rat
Procedure: Dynorphin-induced spinal cord injury was performed according to Long et al., JPET, Vol. 269, No. 1, pp. 358-366 (1993). In brief, spinal subarachnoid injections were delivered using 30-gauge needles inserted between the L4-L5 vertebrae of male Sprague-Dawley rats (300-350 g). The rats were anesthetized with halothane and dorsal midline incisions were made immediately rostral to the pelvic girdle. By using the vertebral processes as guides, the needle was advanced to pass into the subarachnoid space surrounding the cauda equina. Correct needle placement was verified by CSF flow from the needle after its insertion. […] After injections, the incisions were treated with the topical antibacterial furazolidone and closed with wound clips. Rapid recovery from the halothane anesthesia enabled neurological evaluations to be made within 5 minutes of injections.
Neurological function was evaluated using a 5-point ordinal scale, with scores being assigned as follows: 4=normal motor function; 3=mild paraparesis, with the ability to support weight and walk with impairment; 2=paraparesis, with the ability to make walking movements without fully supporting weight; 1=severe paraparesis, in which rats could make limited hind limb movement, but not walking movement; and 0=flaccid paralysis, with complete absence of any hind limb movement. Neurological evaluations were made 24 hours after dynorphin A injection.
Differences in the neurological scores among treatment groups were determined by means of the Mann-Whitney U test or the Kruskal-Wallis test.

Dunning G tumors = test: In vivo Dunning G tumor model, subcutaneous Compound 3; parameters: species or system male Copenhagen syngenic rats
Procedure: Male Copenhagen syngenic rats, age 8 to 10 weeks, were injected in both flanks with 10^7 Dunning G cells. […] Controls received 50 mM HEPES s.c. daily. Tumors were measured twice a week.
(§1) Response to treatment was monitored in two ways. First, mean tumor volume for each group was presented as tumor:control ratio (% T/C) and these values were compared at one point in time. Second, tumor volume versus time was monitored.

LNCaP tumors = test: In vivo LNCaP tumor model, intratumoral Compound 3; parameters: species or system ncr nude male mice
Procedure: Ncr nude male mice, age 5 to 6 weeks, were injected in the right flank with 10^7 LNCaP cells in Matrigel™ (0.1 ml total injection volume). When the tumors reached a predetermined size (50 to 60 mm^3), mice were randomly placed into treatment groups of 6 to 8 mice each. […] Controls received 50 μl of 50 mM HEPES intratumorally daily. Tumors were measured twice a week.
as §1

[1] = Rattus norvegicus, read-out: % Toxicity

Compound: O=C(O)CCC(CP(=O)(O)O)C(=O)O (stereo not shown) [Compound 3, 2-(phosphonomethyl)pentanedioic acid]
- ischemic toxicity (in words) (cortical cell cultures; 100 pM to 1 μM): toxicity decreased as the concentration of 2-(phosphonomethyl)pentanedioic acid increased
- activity at 0.0001 µM (cortical cell cultures; [1]): 66.6 ± 4.38%
- activity at 0.001 µM (cortical cell cultures; [1]): 42.3 ± 9.34%
- activity at 0.01 µM (cortical cell cultures; [1]): 33.1 ± 9.62%
- activity at 0.1 µM (cortical cell cultures; [1]): 30.2 ± 9.43%
- activity at 1 µM (cortical cell cultures; [1]): 8.56 ± 8.22%
- # of myelinated lamellae (sciatic nerve; ave. + SEM, vehicle 13.77 ± 0.09, p < 0.005): 16.53 ± 0.65
- % increase of myelinated lamellae over vehicle (sciatic nerve; p < 0.005): 20%
- ratio of # of myelinated axons (drug/vehicle) (sciatic nerve; silicone implant, approx. 2.5 μg/day, 15 days): 1.5
- increase in number of myelinated axons (sciatic nerve; vs vehicle, 3 mm distal to cryolesion): 1.5 fold
- increase in myelin thickness (sciatic nerve; vs vehicle, 3 mm distal to cryolesion, p<0.005): 20%
- motor scores (in words) (Sprague-Dawley rats; 4 μmoles with dynorphin A, 24 hours, p<0.05 vs vehicle): significant improvement in motor scores
- rats ambulatory (Sprague-Dawley rats; 24 hours post-injection, 15 rats, vehicle 14%, p<0.05): 73%
- protection against dynorphin-induced spinal cord injury (in words) (Sprague-Dawley rats; rat, in vivo): provides effective protection against dynorphin-induced spinal cord injury
- effect on tumor growth (in words) (Dunning G tumors; 1 mg/kg s.c.): no effect on tumor growth
- effect on tumor growth (in words) (Dunning G tumors; 3 mg/kg s.c.): no effect on tumor growth
- tumor size, % of controls (Dunning G tumors; 10 mg/kg s.c., p=0.03): 38 % of controls
- tumor size, % of controls (Dunning G tumors; 30 mg/kg s.c.): 22 % of controls
- Optimal % T/C (LNCaP tumors; 0.025 μg/day intratumoral): 42 % T/C
- Regressions (LNCaP tumors; 0.025 μg/day intratumoral): 1/7
- Tumor volume after 42 days of treatment (LNCaP tumors; 0.025 μg/day, control 807.3±197.3): 465.7±176 mm^3
- Optimal % T/C (LNCaP tumors; 0.25 μg/day intratumoral): 51 % T/C
- Regressions (LNCaP tumors; 0.25 μg/day intratumoral): 1/7
- Optimal % T/C (LNCaP tumors; 2.5 μg/day intratumoral): 45 % T/C
- Regressions (LNCaP tumors; 2.5 μg/day intratumoral): 0/7
- Optimal % T/C (LNCaP tumors; 25.0 μg/day intratumoral): 76 % T/C
- Regressions (LNCaP tumors; 25.0 μg/day intratumoral): 0/7
- tumor growth (in words) (LNCaP tumors; 0.025, 0.25 and 2.5 μg/day intratumoral): slowed tumor growth substantially
